Measurements: EPA's ToxRefDB 2

How the values were obtained:
rabbit [1] = settings: Prenatal developmental toxicity study, new zealand white, Oral, Gavage/Intubation, dose end: 19 GD
rat [2] = settings: Subchronic oral toxicity in rodents, sprague dawley, Feed, dose end: 90 day, group: systemic, systemic / hematology / platelet / platelet + systemic / urinalysis / ketones / ketones
mouse [3] = settings: Subchronic oral toxicity in rodents, b6c3f1, Feed, dose end: 90 day, group: systemic
rabbit [4] = settings: Prenatal developmental toxicity study, himalayan, Oral, Gavage/Intubation, dose end: 19 GD
mouse [5] = settings: Carcinogenicity, b6c3f1, Oral, Feed, dose end: 78 week, group: systemic
dog = settings: Chronic toxicity, beagle, Oral, Feed, dose end: 52 week, group: systemic
rat [6] = settings: Reproduction/developmental toxicity screening test; wistar; Injection; Intraperitoneal; dose end: 45 PND; group: parental; systemic / organ weight / ovary / nos
rat [7] = settings: Fertility (Segment I), wistar, Injection, Intraperitoneal, dose end: 7 day
mouse [8] = settings: Reproduction/developmental toxicity screening test; cd1; Injection; Intraperitoneal; dose end: 14 day; group: maternal; reproductive / reproductive performance / fertility / fertility + reproductive / reproductive performance / implantations / implantations + …
[9] = group: developmental, systemic / in life observation / body weight / fetal weight
[10] = group: maternal, reproductive / reproductive performance / aborted / aborted + reproductive / reproductive performance / postimplantation loss / …
[11] = group: maternal, systemic / in life observation / body weight / body weight gain
[12] = systemic / in life observation / body weight / body weight gain
[13] = systemic / in life observation / body weight / body weight gain + systemic / organ weight / kidney / absolute
[14] = group: maternal, systemic / in life observation / body weight / body weight gain + systemic / in life observation / food consumption / food consumption
[15] = group: maternal, systemic / in life observation / body weight / body weight gain + systemic / in life observation / food consumption / food consumption + …
[16] = systemic / in life observation / body weight / body weight + systemic / organ weight / brain / nos + systemic / organ weight / kidney / nos
[17] = systemic / organ weight / liver / relative to body weight
[18] = systemic / organ weight / liver / relative to body weight + systemic / clinical chemistry / alanine aminotransferase (alt/sgpt) / alanine …
[19] = group: maternal, reproductive / reproductive performance / estrous cycle / length
[20] = group: parental, systemic / clinical chemistry / estradiol / estradiol, free + systemic / pathology microscopic / vagina / diestrus

## COc1cc(OC)nc(NC(=O)NS(=O)(=O)c2ncccc2C(=O)N(C)C)n1 [Nicosulfuron]
Rabbit [1]; [9]
  LEL: 100 mg/kg/day
  LOAEL: 1000 mg/kg/day
  NEL: < 100 mg/kg/day
  NOAEL: 500 mg/kg/day
Rabbit [1]; [10]
  LOAEL: 500 mg/kg/day
  NOAEL: 100 mg/kg/day
Rabbit [1]; [11]
  LEL: 100 mg/kg/day
  NEL: < 100 mg/kg/day
Rat [2]
  LEL: 15 mg/kg/day
  LOAEL: 15 mg/kg/day
  NEL: < 15 mg/kg/day
  NOAEL: < 15 mg/kg/day

## O=C(O)c1c(Cl)ccc2cc(Cl)cnc12 [Quinclorac]
Mouse [3]; [12]
  LOAEL: 1000 mg/kg/day
  NOAEL: < 1000 mg/kg/day
Mouse [3]; [13]
  LEL: 1000 mg/kg/day
  NEL: < 1000 mg/kg/day
Rabbit [4]; [9]
  LEL: 600 mg/kg/day
  LOAEL: 600 mg/kg/day
  NEL: 200 mg/kg/day
  NOAEL: 200 mg/kg/day
Rabbit [4]; [14]
  LEL: 200 mg/kg/day
  LOAEL: 200 mg/kg/day
Rabbit [4]; [15]
  NEL: 70 mg/kg/day
  NOAEL: 70 mg/kg/day
Mouse [5]; systemic / in life observation / body weight / body weight
  LOAEL: 150 mg/kg/day
Mouse [5]; [16]
  NEL: 37.5 mg/kg/day
  NOAEL: 37.5 mg/kg/day
Mouse [5]; systemic / in life observation / body weight / body weight + systemic / organ weight / kidney / nos
  LEL: 150 mg/kg/day
dog; [17]
  LEL: 34.5 mg/kg/day
  NEL: < 34.5 mg/kg/day
dog; [18]
  LOAEL: 469 mg/kg/day
  NOAEL: 140 mg/kg/day

## CC(=O)S[C@@H]1CC2=CC(=O)CC[C@]2(C)[C@H]2CC[C@@]3(C)[C@@H](CC[C@@]34CCC(=O)O4)[C@H]12 [Spironolactone]
Rat [6]
  LEL: 100 mg/kg/day
  LOAEL: > 100 mg/kg/day
  NEL: < 100 mg/kg/day
  NOAEL: ≥ 100 mg/kg/day
Rat [7]; [19]
  LEL: 100 mg/kg/day
  LOAEL: > 100 mg/kg/day
  NEL: < 100 mg/kg/day
  NOAEL: ≥ 100 mg/kg/day
Rat [7]; [20]
  LEL: 100 mg/kg/day
  LOAEL: > 100 mg/kg/day
  NEL: < 100 mg/kg/day
  NOAEL: ≥ 100 mg/kg/day
Mouse [8]
  LEL: 100 mg/kg/day
  LOAEL: > 100 mg/kg/day
  NEL: < 100 mg/kg/day
  NOAEL: ≥ 100 mg/kg/day
